This passage reports Kd results from ChEMBL document CHEMBL3991601, “The target landscape of clinical kinase drugs” (Science, 2017).

What is called Kd is the concentration at which binding is half-saturated.

The source made the active and inactive calls. A value given as a limit tells only on which side of the number the result lay.

One test deals with Adenosine kinase (Homo sapiens, UniProt P55263).
The target in test [1] is T1, Mitogen-activated protein kinase kinase kinase 6 (Homo sapiens, UniProt O95382).
T1 sequence (O95382 whole entry): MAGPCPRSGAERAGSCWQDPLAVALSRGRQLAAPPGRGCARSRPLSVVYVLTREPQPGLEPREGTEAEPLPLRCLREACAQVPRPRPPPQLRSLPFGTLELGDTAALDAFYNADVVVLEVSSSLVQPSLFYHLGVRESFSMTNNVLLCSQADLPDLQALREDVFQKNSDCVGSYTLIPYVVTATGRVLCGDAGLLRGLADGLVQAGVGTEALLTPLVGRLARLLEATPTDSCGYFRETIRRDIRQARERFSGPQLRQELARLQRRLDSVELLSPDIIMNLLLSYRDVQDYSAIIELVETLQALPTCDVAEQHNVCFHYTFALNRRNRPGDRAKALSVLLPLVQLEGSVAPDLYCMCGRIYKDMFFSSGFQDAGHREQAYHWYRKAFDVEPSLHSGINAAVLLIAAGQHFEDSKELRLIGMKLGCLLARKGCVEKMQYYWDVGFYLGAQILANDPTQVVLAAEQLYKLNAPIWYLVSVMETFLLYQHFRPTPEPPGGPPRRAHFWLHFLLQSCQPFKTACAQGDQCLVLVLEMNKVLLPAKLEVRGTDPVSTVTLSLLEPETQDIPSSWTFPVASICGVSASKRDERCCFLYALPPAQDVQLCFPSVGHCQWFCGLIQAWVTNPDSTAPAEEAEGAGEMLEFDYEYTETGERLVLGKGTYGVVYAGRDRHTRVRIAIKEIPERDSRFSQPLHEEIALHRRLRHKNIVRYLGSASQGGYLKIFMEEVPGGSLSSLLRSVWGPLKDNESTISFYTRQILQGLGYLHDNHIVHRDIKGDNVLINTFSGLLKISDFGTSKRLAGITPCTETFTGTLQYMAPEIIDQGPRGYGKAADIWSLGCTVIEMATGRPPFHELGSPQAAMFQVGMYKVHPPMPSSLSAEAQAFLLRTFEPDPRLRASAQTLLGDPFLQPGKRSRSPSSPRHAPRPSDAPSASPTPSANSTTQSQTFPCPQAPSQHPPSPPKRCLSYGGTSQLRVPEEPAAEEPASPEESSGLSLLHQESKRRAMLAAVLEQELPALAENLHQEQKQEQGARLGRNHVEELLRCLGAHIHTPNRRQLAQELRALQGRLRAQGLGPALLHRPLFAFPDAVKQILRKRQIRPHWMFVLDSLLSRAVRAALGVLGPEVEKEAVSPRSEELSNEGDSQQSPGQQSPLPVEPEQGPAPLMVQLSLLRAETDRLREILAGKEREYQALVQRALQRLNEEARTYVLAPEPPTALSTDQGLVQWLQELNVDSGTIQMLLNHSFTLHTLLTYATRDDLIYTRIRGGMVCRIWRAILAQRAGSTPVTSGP

For test [2], the target named is T2, Dynamin-like GTPase OPA1, mitochondrial (Homo sapiens, UniProt O60313).
T2 sequence (O60313 whole entry): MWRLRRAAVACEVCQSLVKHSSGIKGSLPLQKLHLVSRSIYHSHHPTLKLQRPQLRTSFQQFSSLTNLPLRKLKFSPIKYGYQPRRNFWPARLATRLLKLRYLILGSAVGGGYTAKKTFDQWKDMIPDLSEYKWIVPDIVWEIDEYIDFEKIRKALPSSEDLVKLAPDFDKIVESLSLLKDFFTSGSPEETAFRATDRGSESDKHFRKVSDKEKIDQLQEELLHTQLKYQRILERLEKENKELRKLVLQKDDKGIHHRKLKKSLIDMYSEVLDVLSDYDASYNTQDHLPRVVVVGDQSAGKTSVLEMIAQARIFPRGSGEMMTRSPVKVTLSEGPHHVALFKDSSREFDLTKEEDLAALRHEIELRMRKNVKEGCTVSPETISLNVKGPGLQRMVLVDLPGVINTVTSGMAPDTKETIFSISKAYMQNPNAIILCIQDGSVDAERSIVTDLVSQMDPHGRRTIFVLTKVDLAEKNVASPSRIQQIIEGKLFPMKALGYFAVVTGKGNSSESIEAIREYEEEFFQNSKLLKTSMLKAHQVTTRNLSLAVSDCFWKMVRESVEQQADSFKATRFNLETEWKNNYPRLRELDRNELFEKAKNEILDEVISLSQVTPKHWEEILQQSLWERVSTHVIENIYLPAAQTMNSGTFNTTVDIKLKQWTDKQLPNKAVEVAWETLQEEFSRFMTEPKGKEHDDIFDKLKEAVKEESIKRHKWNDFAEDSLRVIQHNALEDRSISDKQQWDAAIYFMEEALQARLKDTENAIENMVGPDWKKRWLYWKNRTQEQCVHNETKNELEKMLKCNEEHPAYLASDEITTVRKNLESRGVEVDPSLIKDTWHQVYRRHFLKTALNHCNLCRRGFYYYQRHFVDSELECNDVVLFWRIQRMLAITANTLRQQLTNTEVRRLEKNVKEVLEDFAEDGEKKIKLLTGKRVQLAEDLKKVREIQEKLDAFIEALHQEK

The target in test [3] is T3, Dual specificity mitogen-activated protein kinase kinase 5 (Homo sapiens, UniProt Q13163).
T3 sequence (Q13163 whole entry): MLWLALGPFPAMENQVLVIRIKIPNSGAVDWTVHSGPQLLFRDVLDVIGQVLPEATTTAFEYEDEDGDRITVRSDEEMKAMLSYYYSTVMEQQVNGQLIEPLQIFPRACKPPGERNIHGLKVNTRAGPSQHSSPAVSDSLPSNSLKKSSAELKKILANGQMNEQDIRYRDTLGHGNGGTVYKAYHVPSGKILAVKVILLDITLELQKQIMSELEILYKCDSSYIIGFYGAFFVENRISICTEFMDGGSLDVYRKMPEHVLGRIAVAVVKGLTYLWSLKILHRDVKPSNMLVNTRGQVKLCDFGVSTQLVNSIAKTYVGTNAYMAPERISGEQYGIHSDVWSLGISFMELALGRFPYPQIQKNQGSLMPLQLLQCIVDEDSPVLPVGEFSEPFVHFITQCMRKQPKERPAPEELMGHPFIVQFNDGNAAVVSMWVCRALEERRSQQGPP
Note: in the data inactive means no Kd found up to 30 µM.

Adenosine kinase, sequence (P55263 whole entry): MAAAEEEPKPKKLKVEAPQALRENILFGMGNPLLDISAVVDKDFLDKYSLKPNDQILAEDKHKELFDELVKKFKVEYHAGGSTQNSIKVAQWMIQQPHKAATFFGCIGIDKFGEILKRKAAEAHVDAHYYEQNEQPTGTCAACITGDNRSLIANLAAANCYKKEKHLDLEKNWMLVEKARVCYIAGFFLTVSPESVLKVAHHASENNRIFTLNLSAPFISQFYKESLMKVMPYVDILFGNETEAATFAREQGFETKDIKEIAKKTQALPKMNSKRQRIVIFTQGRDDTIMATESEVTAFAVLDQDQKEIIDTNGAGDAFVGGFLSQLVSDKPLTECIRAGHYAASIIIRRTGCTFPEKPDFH

For `CCN(CCCOc1ccc2c(Nc3cc(CC(=O)Nc4cccc(F)c4)n[nH]3)ncnc2c1)CCOP(=O)(O)O` [BARASERTIB], the Kd at Adenosine kinase was > 30 µM (inactive); in test [1], > 30 µM (inactive); in test [2], > 30 µM (inactive); in test [3], 0.082 µM (active).

In the case of `C=CCn1c(=O)c2cnc(Nc3ccc(N4CCN(C)CC4)cc3)nc2n1-c1cccc(C(C)(C)O)n1` [ADAVOSERTIB], the dissociation constant (Kd) is 0.013 µM (active) at Adenosine kinase, > 30 µM (inactive) in test [1], > 30 µM (inactive) in test [2] and > 30 µM (inactive) in test [3].

For `COc1cc2ncnc(Nc3ccc(F)c(Cl)c3)c2cc1NC(=O)/C=C/CN1CCCCC1` [DACOMITINIB ANHYDROUS], the Kd (on Adenosine kinase; in test [1]; in test [2]; in test [3]) was > 30 µM (inactive) each time.

For `COCCN1CCN(Cc2ccc(-c3n[nH]c4c3C(=O)c3c(NC(=O)NN5CCOCC5)cccc3-4)cc2)CC1` [RGB-286638], the Kd was > 30 µM (inactive) on Adenosine kinase, > 30 µM (inactive) in test [1], > 30 µM (inactive) in test [2] and 0.535 µM (active) in test [3].

In the case of `O=C(NOC[C@H](O)CO)c1ccc(F)c(F)c1Nc1ccc(I)cc1F` [MIRDAMETINIB], the Kd is > 30 µM (inactive) at Adenosine kinase, > 30 µM (inactive) in test [1], > 30 µM (inactive) in test [2] and 0.808 µM (active) in test [3].

Turning to `CNC(=O)c1cccc(-c2ccc3c(N4CCOC[C@@H]4C)nc(N4CCOC[C@@H]4C)nc3n2)c1` [VISTUSERTIB], the Kd (at Adenosine kinase; in test [1]; in test [2]; in test [3]) was > 30 µM (inactive) each time.

Turning to `COc1cc2nccc(Oc3ccc(NC(=O)C4(C(=O)Nc5ccc(F)cc5)CC4)cc3)c2cc1OC` [CABOZANTINIB], the Kd is > 30 µM (inactive) on Adenosine kinase, > 30 µM (inactive) in test [1], > 30 µM (inactive) in test [2] and 2.39 µM (active) in test [3].

Consider `Cc1cc(Nc2nc(N[C@@H](C)c3ncc(F)cn3)ncc2Cl)n[nH]1` [AZD-1480], for which the Kd (at Adenosine kinase; in test [1]; in test [2]; in test [3]) was > 30 µM (inactive) throughout.

In the case of `O=C(Nc1ccc(OC(F)(F)F)cc1)c1sccc1NCc1ccnc2ccccc12` [OSI-930], the Kd (at Adenosine kinase; in test [1]; in test [2]; in test [3]) was > 30 µM (inactive) throughout.

As to `C=CCN(/C=C1/C(=O)O[C@H](COC)[C@@]2(C)C1=C(O)C(=O)C1=C2[C@H](OC(C)=O)C[C@]2(C)C(=O)CC[C@@H]12)CC=C` [SONOLISIB], the Kd (on Adenosine kinase; in test [1]; in test [2]; in test [3]) was > 30 µM (inactive) in each case.

Turning to `COc1cc2c(N3CCN(C(=O)Nc4ccc(OC(C)C)cc4)CC3)ncnc2cc1OCCCN1CCCCC1` [TANDUTINIB], the Kd (on Adenosine kinase; in test [2]) was > 30 µM (inactive) throughout.

As to `COc1cccc2cc(-c3nc([C@H]4CC[C@H](C(=O)O)CC4)n4ncnc(N)c34)[nH]c12` [OSI-027], the Kd on Adenosine kinase was > 30 µM (inactive); in test [1] it was > 30 µM (inactive); in test [2], > 30 µM (inactive); in test [3], 4.91 µM (active).

As to `O=c1[nH]c([C@@H]2CCCN2)nc2c1oc1ccc(Cl)cc12`, the Kd (at Adenosine kinase; in test [1]; in test [2]; in test [3]) was > 30 µM (inactive) each time.

On to `COc1cc2c(Oc3ccc4[nH]c(C)cc4c3F)ncnc2cc1OCCCN1CCCC1` [CEDIRANIB], for which the Kd (on Adenosine kinase; in test [2]) was > 30 µM (inactive) in each case.

Consider `Cn1cnc2c(F)c(Nc3ccc(Br)cc3Cl)c(C(=O)NOCCO)cc21` [SELUMETINIB], for which the Kd (on Adenosine kinase; in test [2]) was > 30 µM (inactive) each time.

For `CNC(=O)c1ccc(Nc2ncc(C(F)(F)F)c(NCc3nccnc3N(C)S(C)(=O)=O)n2)cc1` [DEFACTINIB], the Kd in test [1], in test [2] and in test [3] was > 30 µM (inactive) throughout.

For `Cc1cc(C(=O)Nc2cc(Oc3ccc4nc(NC(=O)C5CC5)cn4n3)ccc2C)n(C)n1` [TAK-593], the Kd in test [1], in test [2] and in test [3] was > 30 µM (inactive) throughout.

As to `CC1(COc2ccc3c(c2)ncn3-c2ccc3cccc(N4CCC(N)CC4)c3n2)COC1` [CRENOLANIB], the Kd (on Adenosine kinase; in test [1]; in test [2]) was > 30 µM (inactive) throughout.

Take `CN(C)C/C=C/C(=O)Nc1cc2c(Nc3ccc(F)c(Cl)c3)ncnc2cc1O[C@H]1CCOC1` [AFATINIB]: the Kd was 3.49 µM (active) on Adenosine kinase and > 30 µM (inactive) in test [2].

For the molecule `CCOc1ccn(-c2ccc(F)cc2)c(=O)c1C(=O)Nc1ccc(Oc2ccnc(N)c2Cl)c(F)c1` [BMS-777607], the Kd at Adenosine kinase is > 30 µM (inactive); in test [2], > 30 µM (inactive); in test [3] it was 2.08 µM (active).

As for `CC(C)(O)CC(=O)NCCn1ccc2ncnc(Nc3ccc(Oc4cccc(C(F)(F)F)c4)c(Cl)c3)c21` [TAK-285], the Kd (on Adenosine kinase; in test [1]; in test [2]) was > 30 µM (inactive) throughout.

On to `CC1(C)CNc2cc(NC(=O)c3cccnc3NCc3ccncc3)ccc21` [MOTESANIB], for which the Kd (at Adenosine kinase; in test [2]) was > 30 µM (inactive) each time.

Regarding `C[C@@]1(C(=O)Nc2ccc(F)nc2)CCCN1c1nc(Nc2cc(C3CC3)n[nH]2)c2cccn2n1` [BMS-754807], the Kd (on Adenosine kinase; in test [2]) was > 30 µM (inactive) in each case.

In the case of `N#CCNC(=O)c1ccc(-c2ccnc(Nc3ccc(N4CCOCC4)cc3)n2)cc1` [MOMELOTINIB], the Kd (on Adenosine kinase; in test [3]) was > 30 µM (inactive) throughout.
